Among the test systems are LXFL 529 NSCLC; DU-145 prostate; NCI/ADR-RES ovarian; T-47D breast; MDA-MB-231 breast; MDA-MB-435; MDA-N; RXF-631 renal.
Holding throughout (experiment): growth of human tumour cells (NCI), 48 h

Several values for one entry are separate records, joined by “and”; a condition that tells them apart may be missing. Equal entries are not always repeated.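 The compound was tested at five concentrations on cells cultured in 96-well plates, with a 48-hour exposure period. Abbreviation: GI50, concentration required for 50% inhibition of growth. TGI denotes the concentration required for complete inhibition of growth.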

For `CC(C(=O)n1nnc2ccccc21)N(c1ccccc1)c1ccccc1` (stereo unspecified), the TGI in the test with LXFL 529 NSCLC was over 100 µM.

Consider `O=c1c(Cl)c(Cl)cnn1CCc1ccncc1`, for which, in the test on LXFL 529 NSCLC, the TGI stood at 29.8 µM.

As to `OC(CN1CC1)C(O)CN1CC1` (stereo unspecified), the GI50 in the test on DU-145 prostate, in the test with NCI/ADR-RES ovarian, in the test with T-47D breast, with MDA-MB-231 breast, in the test on MDA-MB-435 and with MDA-N was over 50 mg/L throughout. Moreover, the TGI in the test with DU-145 prostate, with NCI/ADR-RES ovarian, with T-47D breast, in the test on MDA-MB-231 breast, with MDA-MB-435 and in the test on MDA-N was over 50 mg/L in each case.

Turning to `CC1(Cc2ccccc2)NC(=S)NC1=O` (stereo unspecified), the TGI in the test with LXFL 529 NSCLC and in the test on RXF-631 renal was over 100 µM throughout.

In the test on LXFL 529 NSCLC, `Cc1cc(N(CCC#N)CCC#N)ccc1/C=C1N=C(/C=C/c2ccccc2)OC(=O)N\1` showed a TGI of over 100 µM.

In turn, `C#CCC(N)(CO)C(=O)O` (stereo unspecified) yielded a TGI in the test with LXFL 529 NSCLC of over 100 µM.

In the test on LXFL 529 NSCLC, `CC(=O)OC1COC(n2c(=S)n(-c3ccccc3)c(=O)c3cc(Br)ccc32)C(OC(C)=O)C1OC(C)=O` (stereo unspecified) registered a TGI of over 100 µM.

Regarding `Cl[Si]1(Cl)Oc2ccccc2O[Si](Cl)(Cl)Oc2ccccc2O1`, the TGI in the test with RXF-631 renal is over 100 µM.

As to `COc1ccccc1-c1cc(=O)c2ccc(C)nc2[nH]1`, the TGI with DU-145 prostate was over 100 µM; with NCI/ADR-RES ovarian it was over 100 µM; with T-47D breast it was over 100 µM; in the test with MDA-MB-231 breast it was over 100 µM; in the test on MDA-MB-435, 48.7 µM; with MDA-N it was 41.5 µM. The GI50 in the test on MDA-MB-435 is 22 µM; in the test on MDA-N, 20.1 µM.

With `Cc1ccc(S(=O)(=O)N/N=C(\c2nc3ccc([N+](=O)[O-])cc3[nH]c2=O)C(O)c2ccccc2Cl)cc1` (stereo unspecified), the TGI with LXFL 529 NSCLC and with RXF-631 renal was over 100 µM in each case.

Turning to `C=CCOC(=O)CC[N+]1=CCC(c2ccccc2)(c2ccccc2)O1`, the TGI in the test with DU-145 prostate, with T-47D breast, with MDA-MB-231 breast, with MDA-MB-435 and with MDA-N was over 100 µM throughout.

In the test on LXFL 529 NSCLC, `CC(=O)OCC1OC(n2cc([N+](=O)[O-])c(=O)[nH]c2=O)C(OC(C)=O)C(OC(C)=O)C1OC(C)=O` (stereo unspecified) came in with a TGI of over 100 µM.

Take `C=CCC1[C@@H](C(C)(C)C(C(C)=O)C(=O)C(=O)OC)OC(C(C)(C)C)N1C(=O)OC` (stereo partly specified): in the test with RXF-631 renal, the TGI is over 100 µM.

`COc1cc2cnc3c4ccccc4ccc3c2cc1OC` displayed a TGI with LXFL 529 NSCLC of over 100 µM.

`NC(=O)/C=C/C(=O)O` showed a TGI in the test on LXFL 529 NSCLC of over 5000 µM.

As for `Cc1cc2c(Br)cc(Br)c(O)c2nc1C(=O)c1ccccc1`, the TGI was over 100 µM in the test with DU-145 prostate; 80.6 µM with LXFL 529 NSCLC; over 100 µM with NCI/ADR-RES ovarian; 74.6 µM in the test on T-47D breast; 78.5 µM in the test on MDA-MB-231 breast; over 100 µM in the test with MDA-MB-435. In the test with MDA-N, this molecule showed a TGI of 96.3 µM.

`COc1c(Br)cc(Br)c(OC)c1-c1[nH]c(Br)c(Br)c1Br` gave a TGI in the test with RXF-631 renal of 21.9 µM.

`O=C1C=CC(=O)N1Nc1ccc([N+](=O)[O-])cc1[N+](=O)[O-]` showed a TGI in the test on LXFL 529 NSCLC of over 64.6 µM.

In the test on LXFL 529 NSCLC, `Cc1cn(C2OC(C)(CO)C(O)C2O)c(=O)[nH]c1=O` (stereo unspecified) returned a TGI of over 100 µM.

`Cc1nnc(N/N=C(/C(=O)C(C#N)c2ccccc2)C(C#N)c2ccccc2)n1N` (stereo unspecified) had a TGI with LXFL 529 NSCLC of 10.6 µM.

Regarding `COc1ccc(Nc2nc3ccccc3nc2-c2cccs2)cc1`, the TGI in the test on LXFL 529 NSCLC was over 100 µM.

Take `OC(c1ccc(Br)cc1)(c1cccs1)C1CC1` (stereo unspecified): the TGI with DU-145 prostate turned out to be 81.6 µM; in the test with NCI/ADR-RES ovarian, 60.5 µM; in the test on T-47D breast it was 88.5 µM; in the test on MDA-MB-231 breast, 39.6 µM; in the test with MDA-MB-435 it was 36.1 µM; with MDA-N, 41.8 µM.

Regarding `CCN(CC)CC(=O)N1CCc2c([nH]c3ccccc23)C1c1cccnc1` (stereo unspecified), the TGI in the test with LXFL 529 NSCLC and in the test with RXF-631 renal was over 100 µM each time.

Regarding `O=c1ncccn1C1C=C(CO)C(O)C1O` (stereo unspecified), in the test on LXFL 529 NSCLC, the TGI was over 50 µM.

Regarding `CSc1c(C)c(C)nn1-c1ccccc1`, the TGI with LXFL 529 NSCLC and in the test with RXF-631 renal was over 100 µM throughout.

Take `CNC(SC)=C1C(=O)OC(C)(C)OC1=O`: the TGI with LXFL 529 NSCLC was over 100 µM.

`CCOC(=O)/C(=C/c1cccc(OC)c1)N(CC)CC` had a TGI with LXFL 529 NSCLC of over 100 µM.

As to `Cc1ccc2c(c1)Sc1ccc(N=NN(C)C)cc1N2C`, the TGI is over 100 µM in the test on DU-145 prostate; over 100 µM in the test on NCI/ADR-RES ovarian; 85.9 µM with T-47D breast; over 100 µM in the test with MDA-MB-231 breast; over 100 µM in the test on MDA-MB-435; over 100 µM with MDA-N.

Turning to `CC(=O)NNc1nc(C)c(C(=O)NNC(=O)C(=O)Nc2nc3ccc([N+](=O)[O-])cc3s2)s1`, the TGI with DU-145 prostate is over 100 µM; with LXFL 529 NSCLC, over 100 µM; in the test with NCI/ADR-RES ovarian, over 100 µM; with T-47D breast, 68.3 µM; in the test on RXF-631 renal it was over 100 µM; in the test on MDA-MB-231 breast, over 100 µM. Besides, the TGI in the test with MDA-MB-435 and in the test on MDA-N was over 100 µM throughout.

Turning to `CC1(C)CC[C@H](C2=CC(=O)c3c(O)ccc(O)c3C2=O)O1`, the TGI in the test on DU-145 prostate is 6.28 µM and 4.38 µM; with NCI/ADR-RES ovarian, 12 µM; in the test with T-47D breast, 1.35 µM and 2.63 µM; in the test on RXF-631 renal, 3.98 µM; with MDA-MB-231 breast, 2.79 µM and 8.31 µM; in the test with MDA-MB-435, 0.837 µM. Also, the TGI in the test on MDA-N is 1.6 µM and 3.78 µM. Also, the GI50 in the test on MDA-MB-435 was 0.33 µM.

As to `O=C1C(SCCO)=C(SCCO)C(=O)c2ccccc21`, the TGI in the test with NCI/ADR-RES ovarian is 2.53 µM; in the test with T-47D breast it was over 27.5 µM; in the test on MDA-MB-231 breast, 4.15 µM; in the test on MDA-MB-435, 0.348 µM; with MDA-N it was 0.314 µM.

Source of the values: PubChem BioAssay (NCI).
